Experimental data published in PMC13195669, “GPR3 Ligands Discovered through Combined Virtual and Conformational Biosensor-Based Screening” (Journal of the American Chemical Society, 2026).

Tests used:
GPR3 = biological target: T1, GPR3 (Homo sapiens, UniProt P46089); assay: Gs heterotrimer dissociation biosensor (Gs-CASE) in HEK293A cells cotransfected with GPR3; type: cell-based; conditions: HEK293A transiently transfected with Gs-CASE and GPR3; read-out: EC50 of GPR3-dependent BRET increase, Gs dissociation biosensor
T1 construct: host or cells: HEK293A, transient
T1 sequence (P46089 whole entry): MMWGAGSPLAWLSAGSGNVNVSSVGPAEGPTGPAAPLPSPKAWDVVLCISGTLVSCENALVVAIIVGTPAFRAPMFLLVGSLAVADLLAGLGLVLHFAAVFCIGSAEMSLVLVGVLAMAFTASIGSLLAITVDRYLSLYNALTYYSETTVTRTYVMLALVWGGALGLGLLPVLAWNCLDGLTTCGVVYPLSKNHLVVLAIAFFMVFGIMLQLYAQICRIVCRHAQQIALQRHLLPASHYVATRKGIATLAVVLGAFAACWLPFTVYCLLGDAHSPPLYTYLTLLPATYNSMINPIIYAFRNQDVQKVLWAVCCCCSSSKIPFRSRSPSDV
Excerpt: To further delineate the pharmacological properties of 33, we evaluated its activity in signaling assays downstream of GPR3. […] We also investigated whether 33 blocks the activity of previously validated GPR3 ligands–the agonist DPI and the inverse agonist AF64394 (Chart )–in a cAMP assay. […] The differential effect between OEA and oleamide may reflect differences in their conformational and/or positional flexibility within the GPR3 binding pocket. This difference is supported by MD simulations of oleamide in GPR3 and by a comparison of oleic acid binding poses in the highly similar pockets of GPR3 and GPR6. , […]
(§1) Cells expressing the conformational GPCR biosensors were grown for 24 h (stable cells) or 48 h (transiently transfected cells) in white 96-well plates and washed with 100 µl of HBSS. […] Three baseline BRET reads were recorded and averaged prior to the addition of serial dilutions of ligands or veh icle control and subsequent BRET reads. […] BRE T donor emission was quantified with a 470/80 nm monochromator. […] Experiments were carried out using a CLARIOstar plate reader.
(§2) FRET- and BRET-based measurements of cAMP levels and Gs dissociation/reassociation Transfected cells grown in black 96-well plates were washed twice with 100 µl of HBSS 48 h after transfection and incubated with HBSS. […] FRET donor emission was quantified with a 480/10 nm filter. […]

GPR3 T3.37A mutant = biological target: T2, GPR3 T3.37A mutant (Homo sapiens, UniProt P46089, T121A); assay: GPR3 conformational biosensor with T3.37A point mutation; type: cell-based; conditions: wildtype vs mutant biosensor; transiently transfected HEK293A
T2 construct: ligated to the full-length C-terminus; expressed in transfected cells; host or cells: HEK293A, transient
T2 sequence (P46089 2-330 T121A limits assumed): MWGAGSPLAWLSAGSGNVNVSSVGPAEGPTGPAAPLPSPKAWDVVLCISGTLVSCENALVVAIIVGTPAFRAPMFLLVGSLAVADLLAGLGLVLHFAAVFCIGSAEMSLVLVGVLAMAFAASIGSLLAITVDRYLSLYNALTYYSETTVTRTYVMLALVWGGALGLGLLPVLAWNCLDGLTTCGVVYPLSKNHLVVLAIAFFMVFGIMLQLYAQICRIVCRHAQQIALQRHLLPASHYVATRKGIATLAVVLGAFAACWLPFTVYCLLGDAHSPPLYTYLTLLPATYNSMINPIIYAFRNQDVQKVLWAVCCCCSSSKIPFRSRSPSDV
Excerpt: To develop a hypothesis for the cause of the significant loss in efficacy from VH1 to 33, we computationally predicted the binding poses of both molecules in GPR3 (Figure a). […] In contrast, the cyclopropyl ring of 33 is still buried in the receptor’s transmembrane core. […] We also challenged this binding model of 33 with another GPR3 biosensor variant which harbors the T^3.37A point mutation in transmembrane helix 3. According to an alternative predicted pose of 33 obtained with Boltz-2 (c.f., SI – Materials and Methods section), this mutation should hamper 33 binding to GPR3.
BRET-based GPCR conformational sensor experiments
as §1, §2

EC50 (GPR3): 249 nM
effect of T3.37A mutation on activity (GPR3 T3.37A mutant): no such effect on 33 activity
SMILES: N=c1n(Cc2ccccc2)c2ccccc2n1CC1CC1 [compound 33]
